Reference: patent US12662491B2 (Redona Therapeutics, Inc., priority 2020, dated 2026)
pIC50: −log10 of the molar value.

biological target: T1, Zcchc11 enzyme (Homo sapiens, UniProt Q5TAX3); assay: TUTase assay (Zcchc11 assay, Lin28a-dependent polyuridylation of pre-let-7); type: biochemical; conditions: Lin28a-dependent Zcchc11 (Z11) TUTase activity; read-out: Potency Lin28a-dep Z11 IC50
T1 construct: made in house; host or cells: HEK293 cells (Zcchc11); E. coli Rosetta II (LIN28A)
T1 sequence (Q5TAX3 212-1420): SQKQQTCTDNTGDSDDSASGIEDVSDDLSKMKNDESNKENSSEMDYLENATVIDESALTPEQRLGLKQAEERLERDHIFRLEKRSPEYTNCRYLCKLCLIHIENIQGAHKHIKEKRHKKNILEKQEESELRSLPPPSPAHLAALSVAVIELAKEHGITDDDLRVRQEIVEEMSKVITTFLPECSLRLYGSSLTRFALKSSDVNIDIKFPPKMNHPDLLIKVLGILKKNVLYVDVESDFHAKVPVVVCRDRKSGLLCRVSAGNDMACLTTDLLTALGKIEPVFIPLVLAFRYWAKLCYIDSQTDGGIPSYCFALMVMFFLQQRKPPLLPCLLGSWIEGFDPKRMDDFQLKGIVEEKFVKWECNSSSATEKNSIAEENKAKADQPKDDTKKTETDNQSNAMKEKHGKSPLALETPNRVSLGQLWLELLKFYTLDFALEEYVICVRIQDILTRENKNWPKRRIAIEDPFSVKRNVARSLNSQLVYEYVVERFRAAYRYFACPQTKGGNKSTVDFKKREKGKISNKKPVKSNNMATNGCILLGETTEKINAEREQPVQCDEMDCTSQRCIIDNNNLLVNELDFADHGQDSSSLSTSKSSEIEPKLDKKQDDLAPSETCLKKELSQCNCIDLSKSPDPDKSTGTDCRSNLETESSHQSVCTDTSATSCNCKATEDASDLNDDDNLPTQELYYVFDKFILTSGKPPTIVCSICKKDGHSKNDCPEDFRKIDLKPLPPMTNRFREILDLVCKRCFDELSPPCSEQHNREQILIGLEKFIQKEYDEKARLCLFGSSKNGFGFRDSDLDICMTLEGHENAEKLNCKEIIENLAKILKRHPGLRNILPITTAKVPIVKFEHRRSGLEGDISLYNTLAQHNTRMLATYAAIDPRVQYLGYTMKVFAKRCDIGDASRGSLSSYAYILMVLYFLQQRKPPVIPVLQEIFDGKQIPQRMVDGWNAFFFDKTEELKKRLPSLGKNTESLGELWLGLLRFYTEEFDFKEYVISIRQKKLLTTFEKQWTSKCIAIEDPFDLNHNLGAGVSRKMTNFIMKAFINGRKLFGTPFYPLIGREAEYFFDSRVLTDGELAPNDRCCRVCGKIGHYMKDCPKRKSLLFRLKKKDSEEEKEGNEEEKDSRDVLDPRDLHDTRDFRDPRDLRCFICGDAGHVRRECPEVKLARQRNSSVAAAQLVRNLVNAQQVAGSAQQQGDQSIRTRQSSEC
Method in brief: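 Polyuridylation measured as fluorescein loss when a rhodamine-labelled A20 probe anneals to U-tails added to fluorescein pre-let-7 (2 nM). Reaction: truncated Zcchc11 0.2 nM, E. coli-made LIN28A 10 nM, UTP 5 uM, HEPES pH 7.3, room temperature. Initial rates fitted to four-parameter IC50.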

pIC50	Structure (SMILES)
≥ 6.00	O=C(O)c1cn(-c2cnccn2)c2cc(N3CCC[C@@H]3COc3ncccc3F)c(F)cc2c1=O (racemic) [Compound 174, rac-(R)-6-fluoro-7-(2-(((3-fluoropyridin-2-yl)oxy)methyl)pyrrolidin-1-yl)-4-oxo-1-(pyrazin-2-yl)-1,4-dihydro-quinoline-3-carboxylic acid]
5.00 to 6.00	COc1ccc(F)c(-n2cc(C(=O)O)c(=O)c3cc(F)c(N4CCC[C@@H]4COc4ccccn4)cc32)c1 [Compound 158, (R)-6-fluoro-1-(2-fluoro-5-methoxy-phenyl)-4-oxo-7-(2-((pyridin-2-yloxy)methyl)pyrrolidin-1-yl)-1,4-dihydro-quinoline-3-carboxylic acid]
≥ 6.00	O=C(O)c1cn(-c2ccccc2)c2cc(N3CCC[C@@H]3COc3ncccc3Cl)c(F)cc2c1=O [Compound 97, (R)-7-(2-(((3-chloro-pyridin-2-yl)oxy)methyl)pyrrolidin-1-yl)-6-fluoro-4-oxo-1-phenyl-1,4-dihydro-quinoline-3-carboxylic acid]
5.00 to 6.00	O=C(O)c1cn(-c2ccc(F)cn2)c2cc(N3CCC[C@@H]3COc3ccccn3)c(F)cc2c1=O [Compound 150, (R)-6-fluoro-1-(5-fluoropyridin-2-yl)-4-oxo-7-(2-((pyridin-2-yloxy)methyl)pyrrolidin-1-yl)-1,4-dihydro-quinoline-3-carboxylic acid]
≥ 6.00	COc1ccc(Cl)c(OC[C@H]2C[C@H]3C[C@H]3N2c2cc3c(cc2F)c(=O)c(C(=O)O)cn3-c2ccc(N(C)C)nc2)n1 [Compound 340, 7-[(1R,3R,5R)-3-{[(3-Chloro-6-methoxy-pyridin-2-yl)oxy]methyl}-2-azabicyclo [3.1.0]hexan-2-yl]-1-[6-(dimethyl-amino)pyridin-3-yl]-6-fluoro-4-oxoquinoline-3-carboxylic acid]

same assay, conditions: Lin28a-dependent Zcchc11 (Z11) TUTase assay; read-out: Potency Lin28a-dep Z11 IC50

pIC50	Structure (SMILES)
≥ 6.00	COc1ccnc(OC[C@H]2C[C@H]3C[C@H]3N2c2cc3c(cc2F)c(=O)c(C(=O)O)cn3-c2ccc(N3CC(N(C)C)C3)nc2)c1C [Example 681, 1-(6-(3-(dimethylamino)azetidin-1-yl)pyridin-3-yl)-6-fluoro-7-((1R,3R,5R)-3-(((4-methoxy-3-methylpyridin-2-yl)oxy)methyl)-2-azabicyclo[3.1.0]hexan-2-yl)-4-oxo-1,4-dihydroquinoline-3-carboxylic acid]
≥ 6.00	Cn1ccnc1OC[C@H]1CCCN1c1cc2c(cc1Cl)c(=O)c(C(=O)O)cn2-c1ccc(N2CCC2)nc1 [Example 501, (R)-1-(6-(azetidin-1-yl)pyridin-3-yl)-6-chloro-7-(2-(((1-methyl-1H-imidazol-2-yl)oxy)methyl)pyrrolidin-1-yl)-4-oxo-1,4-dihydroquinoline-3-carboxylic acid]
≥ 6.00	O=C(O)c1cn(-c2ccc(N3CCOCC3)nc2)c2cc(N3CCC[C@@H]3COc3ncccc3Cl)c(Cl)cc2c1=O [Example 431, (R)-6-chloro-7-(2-(((3-chloropyridin-2-yl)oxy)methyl)pyrrolidin-1-yl)-1-(6-morpholino-pyridin-3-yl)-4-oxo-1,4-dihydroquinoline-3-carboxylic acid]
5.00 to 6.00	O=C(O)c1cn(Cc2ccncc2)c2cc(N3CCC[C@@H]3COc3ncccc3Cl)c(Cl)cc2c1=O [Example 577, (R)-6-chloro-7-(2-(((3-chloropyridin-2-yl)oxy)methyl)pyrrolidin-1-yl)-4-oxo-1-(pyridin-4-ylmethyl)-1,4-dihydroquinoline-3-carboxylic acid]
≥ 6.00	C#Cc1cc2c(=O)c(C(=O)O)cn(-c3ccc(N4CC(N(C)C)C4)nc3)c2cc1N1CCC[C@@H]1COc1ncccc1Cl [Example 592, (R)-7-(2-(((3-chloropyridin-2-yl)oxy)methyl)pyrrolidin-1-yl)-1-(6-(3-(dimethylamino)azetidin-1-yl)pyridin-3-yl)-6-ethynyl-4-oxo-1,4-dihydroquinoline-3-carboxylic acid]
